Reference: article PMC12656566, “Toxicokinetic Characterization of MDM Hydantoin via Stable Metabolite DMH: Population Modeling for Predicting Dermal Formaldehyde Formation” (Toxics, 2025)
Several values for one entry are separate records, joined by “and”; a condition that tells them apart may be missing. Equal entries are not always repeated. Entries after “also recorded” stand apart in the source; their conditions may differ. Where two headings read alike, the source gives them in different places.

What was measured:
[1] = Toxicokinetics after transdermal application of gel containing 2% MDMH or DMH (plasma, non-compartmental analysis); type: in vivo; details: rats; for bioavailability: plasma, DMH, TD application of 2% DMH gel (10.7 mg/kg) vs IV, read-out: Absolute bioavailability
Method: (§1) An API 4000 LC-MS/MS system (Applied Biosystems/MDS Sciex, Foster City, CA, USA) coupled with an Agilent 1100 HPLC (Agilent Technologies, Santa Clara, CA, USA) was used for determination of MDMH and DMH in rat plasma. The analytes were separated on a Synergi Fusion-RP 80 Å (150 × 2.0 mm, i.d., 4 µm;) with a Security Guard™ Cartridge AJ0-7556 (Phenomenex, Torrance, CA, USA), and the column oven temperature was maintained at 30 °C. An isocratic solvent system of distilled water and methanol (80:20, v/v) was used with a runtime of 7 min. The injection volume was 10 µL, and the flow rate was maintained at 0.2 mL/min.
(§2) For plasma sample preparation, formic acid was immediately added to blood samples upon collection to achieve a final concentration of 0.5% to prevent potential enzymatic degradation of MDMH, and all sample preparation procedures were conducted at ≤4 °C to minimize temperature-dependent decomposition of the analytes. For analysis, 50 μL of internal standard solution and 100 μL of methanol containing 0.5% formic acid (as precipitating solvent) were added to 50 μL of plasma, followed by vortex-mixing for 2 min. After centrifugation at 21,206× g for 10 min, 40 μL of supernatant was mixed with 160 μL of 0.5% formic acid in distilled water, and 10 μL was injected into the LC-MS/MS system.
(§3) All animal care and experiments were conducted to evaluate the toxicokinetics of MDMH and DMH according to the Guidelines for the Care and Use of Animal approved by the Ethics Committee for Treatment of Laboratory Animal at Daegu Catholic University (CUD-2019-020). To evaluate the toxicokinetics of MDMH and DMH in rats after intravenous injection (IV) or transdermal application (TD). Male Sprague-Dawley rats (9 weeks, body weight 260–310 g) (Hyochang Science Co., Daegu, Republic of Korea) were kept in plastic cages and fed regularly with water and feed. Rats were acclimated for a minimum of 1 week prior to the experiment under conditions keeping a 12 h light-dark cycle, a temperature of 23 ± 2 °C, and a relative humidity of 50 ± 10%. The rats were cannulated using polyethylene tubing (0.58 mm i.d., 0.96 mm o.d., Natsume, Tokyo, Japan) in the jugular vein after intraperitoneal injection at a dose of 0.9 mL/kg of Zoletil 50 (Virbac, Carros, France).
The transdermal application study was performed according to the “Organization for Economic Cooperation and Development guidelines for the in vivo skin absorption test”. Rats were anesthetized using inhaled isoflurane, and the back area of 6 × 6 cm^2 was removed using an electric clipper (808, Daito Electric Co., Osaka, Japan) 12 h before administration. The clipped skin of the rat was wiped with acetone without damaging the stratum corneum, and a resting period was allowed just before the study.
For TD application, a gel corresponding to approximately 5 mg/cm^2 was applied to an area of 5 × 5 cm^2 among the depilated areas. The doses of MDMH and DMH for the transdermal application study were 10.9 and 10.7 mg/kg on average, respectively. Although the regulatory limit for MDMH in cosmetics is 0.2%, a higher concentration (2%) was employed to ensure adequate systemic exposure and plasma concentrations suitable for accurate toxicokinetic characterization of these rapidly metabolized compounds. To prevent loss of the compounds due to volatilization and grooming, the application on the back site was adhered with gauze and pads. Blood samples were collected via the jugular vein in the MDMH application group at 0, 30 min, and 1, 2, 3, 4, 5, 6, 7, 8, 10, 12, and 24 h (13 points/head), and in the DMH application group at 0, 30 min, and 1, 2, 3, 4, 6, 8, 10, 12, and 24 h (11 points/head). Plasma samples were harvested by centrifugation of obtained blood for 10 min at 4000× g, and stored at −20 °C until analysis.
The toxicokinetic parameters were calculated by standard non-compartmental analysis using the non-linear least squares regression program Phoenix™ WinNonlin® 6.1 (Pharsight, Cary, NC, USA). […]

[2] = Toxicokinetics after intravenous injection of MDMH or DMH (plasma, LC-MS/MS, non-compartmental analysis); type: in vivo; details: rats; for half-life / clearance / Vd / AUC(0-t) / C0 / AUC(0-inf): male, Sprague-Dawley, rat; for half-life / clearance / Vd: plasma; for half-life: iv; for Vd: read-out: Vz; for AUC(0-inf): read-out: AUCinfinity
Method: as §1, §2, §3
For IV injection, MDMH or DMH was dissolved in distilled water, respectively, and the dose was 50 or 10 mg/kg, respectively. Blood samples were collected via the jugular vein in the MDMH administration group at 0, 0.5, 1, 1.5, 2, 2.5, 3, 5, 10, and 15 min and 1, 2, 4, 8, 12, and 24 h (16 points/head), and in the DMH administration group at 0, 2, 5, 10, 15, 30 min and 1, 2, 4, 8, 12, and 24 h (12 points/head). Plasma samples were harvested by centrifugation of obtained blood for 10 min at 4000× g, and stored at −20 °C until analysis.
The toxicokinetic parameters were calculated by standard non-compartmental analysis using the non-linear least squares regression program Phoenix™ WinNonlin® 6.1 (Pharsight, Cary, NC, USA).
The non-compartmental toxicokinetic parameters included terminal half-life (t1/2), area under the plasma concentration versus time curve from time zero to the last observation time point (AUClast) and to infinity (AUCinfinity), volume of distribution (Vz), and systemic clearance (CL). The maximum plasma concentration (Cmax) and the time to reach Cmax (Tmax) were obtained directly from the observed data. Absolute bioavailability (F) was estimated as the ratio of the dose-normalized AUCinfinity of MDMH and DMH following TD application compared to IV injection. The fraction metabolized (Fm) was calculated as the ratio of metabolite AUC to parent AUC after correction for molecular weight differences, accounting for the stoichiometric conversion relationship:(1) Fm=AUCDMH·MWMDMH/AUCMDMH·MWDMH where MWMDMH = 158.16 g/mol and MWDMH = 128.13 g/mol. […]

[3] = male, Sprague-Dawley, rat, topical or ocular, DMH in plasma after TD application of gel containing 2% DMH (10.7 mg/kg), n = 5
[4] = DMH in plasma after IV injection of DMH 10 mg/kg, n = 5
[5] = DMH after IV injection of DMH 10 mg/kg, n = 5
[6] = MDMH after IV injection of MDMH 50 mg/kg, n = 5
[7] = MDMH in plasma after IV injection of MDMH 50 mg/kg, n = 5

Question: Which results are given for `CC1(C)NC(=O)NC1=O` [DMH, 5,5-dimethylhydantoin]?
Answer: bioavailability ([1]; male, Sprague-Dawley, rat, topical or ocular, n = 5): 101 ± 18%; bioavailability ([1]; male, Sprague-Dawley, rat, topical, n = 5): 101 ± 18%; AUC(0-t) [1, 3]: 40510 ± 50 ng·h/mL; Cmax [1, 3]: 6460 ± 1690 ng/mL; Tmax [1, 3]: 2 ± 1.73 h; half-life [1, 3]: 5.36 ± 2.18 h; AUC(0-inf) ([1]; male, Sprague-Dawley, rat, topical or ocular, DMH in plasma after TD application of gel containing 2% DMH (10.7 mg/kg), n = 5, read-out: AUCinfinity): 51500 ± 5530 ng·h/mL; duration of initial distribution phase (alpha phase) ([2]; DMH after direct intravenous administration of DMH): approximately 30 min; t1/2 [2, 4]: 3.0212 ± 0.5513 h; half-life ([2]; 10 mg/kg, DMH after IV injection of DMH 10 mg/kg, read-out: t1/2 (hour equivalent)): 3.02 h; half-life ([2]; 10 mg/kg, DMH in plasma after IV injection of DMH 10 mg/kg, n = 5, read-out: t1/2): 3.02 ± 0.55 h; clearance [2, 5]: 4 mL/min/kg; Vd [2, 5]: 1 ± 0.47 L/kg; AUC(0-t) [2, 4]: 47100 ± 29900 ng·h/mL; C0 [2, 4]: 26900 ± 18300 ng/mL; AUC(0-inf) [2, 4]: 55000 ± 36800 ng·h/mL

Question: Which results are given for `CC1(C)C(=O)NC(=O)N1CO` [MDMH, 1-(Hydroxymethyl)-5,5-dimethylhydantoin]?
Answer: parent compound plasma concentrations after transdermal application ([1]; MDMH in plasma after MDMH gel TD application, throughout the sampling period): below the quantification limit; also recorded: below quantification limits; Fm to DMH (fraction metabolized) ([1]; ratio of DMH exposure after MDMH gel TD (10.9 mg/kg) to that after DMH gel TD): 89.78 ± 24.15%; Fm to DMH (fraction of MDMH metabolized to DMH) ([2]; IV injection of MDMH 50 mg/kg, AUC ratio adjusted for molecular weight): 97.6 ± 9.6% and 97.59 ± 9.64%; time until parent compound plasma concentrations reached below the quantification limit ([2]; MDMH after i.v. injection of MDMH): ≤ 5 min; half-life ([2]; 50 mg/kg, MDMH after IV injection of MDMH 50 mg/kg, read-out: t1/2 (hour equivalent)): 0.007 h; half-life ([2]; 50 mg/kg, MDMH in plasma after IV injection of MDMH 50 mg/kg, n = 5, mean ± S.D., read-out: t1/2): 0.00667 ± 0.00167 h; clearance [2, 6]: 1570 mL/min/kg; Vd [2, 6]: 0.84 ± 0.04 L/kg; AUC(0-t) [2, 7]: 570 ± 190 ng·h/mL; C0 [2, 7]: 77900 ± 28000 ng/mL; AUC(0-inf) [2, 7]: 580 ± 180 ng·h/mL
